Laboratory results: ChEMBL document CHEMBL3872249, “Computer design, synthesis, and bioactivity analyses of drugs like fingolimod used in the treatment of multiple sclerosis” (Bioorg Med Chem, 2017)
Blank lines part the entries; values can stand above or below the compound they belong to. Calls of active or inactive are those of the source. The calls are words filed in the database; no cut-off is given here.

Experiments:
[1] = system: SH-SY5Y; test: Effect on IL6 mRNA expression in human SH-SY5Y cells at EC10 by qPCR method relative to beta-actin; assay type: functional
[2] = system: SH-SY5Y; test: Effect on MMP9 mRNA expression in human SH-SY5Y cells at EC10 by qPCR method relative to beta-actin; assay type: functional
[3] = system: SK-N-SH; test: Effect on NFKB1 mRNA expression in human SK-N-SH cells at EC10 by qPCR method relative to beta-actin; assay type: functional
[4] = system: SK-N-SH; test: Effect on DRD2 mRNA expression in human SK-N-SH cells at EC10 by qPCR method relative to beta-actin; assay type: functional
[5] = system: U-118-MG; test: Effect on ICAM1 mRNA expression in human U118MG cells at EC10 by qPCR method relative to beta-actin; assay type: functional
[6] = system: SK-N-SH; test: Effect on EPHA1 mRNA expression in human SK-N-SH cells at EC10 by qPCR method relative to beta-actin; assay type: functional
[7] = system: SK-N-SH; test: Effect on TNF mRNA expression in human SK-N-SH cells at EC10 by qPCR method relative to beta-actin; assay type: functional
[8] = system: U-118-MG; test: Effect on ADORA2A mRNA expression in human U118MG cells at EC10 by qPCR method relative to beta-actin; assay type: functional
[9] = system: U-118-MG; test: Effect on PMP22 mRNA expression in human U118MG cells at EC10 by qPCR method relative to beta-actin; assay type: functional
[10] = Cytotoxicity against human U118MG cells measured after 24 hrs by crystal-violet staining based assay; assay type: toxicity, cell-based; details: u-118-mg
[11] = system: SK-N-SH; test: Effect on CXCL10 mRNA expression in human SK-N-SH cells at EC10 by qPCR method relative to beta-actin; assay type: functional
[12] = system: SH-SY5Y; test: Effect on IL10 mRNA expression in human SH-SY5Y cells at EC10 by qPCR method relative to beta-actin; assay type: functional
[13] = target: Sphingosine 1-phosphate receptor 1 (Homo sapiens) (UniProt P21453); test: Agonist activity at sphingosine-1-phosphate receptor human SK-N-SH cells assessed as increase in cAMP level at EC10 by direct immunoassay; assay type: functional, cell-based
[14] = system: SH-SY5Y; test: Effect on VCAM1 mRNA expression in human SH-SY5Y cells at EC10 by qPCR method relative to beta-actin; assay type: functional
[15] = system: SK-N-SH; test: Effect on ADORA2A mRNA expression in human SK-N-SH cells at EC10 by qPCR method relative to beta-actin; assay type: functional
[16] = target: Sphingosine 1-phosphate receptor 1 (Homo sapiens) (UniProt P21453); test: Agonist activity at sphingosine-1-phosphate receptor in human SH-SY5Y cells assessed as increase in cAMP level at EC10 by direct immunoassay; assay type: functional, cell-based
[17] = system: SH-SY5Y; test: Effect on TNF mRNA expression in human SH-SY5Y cells at EC10 by qPCR method relative to beta-actin; assay type: functional
[18] = system: SH-SY5Y; test: Effect on PMP22 mRNA expression in human SH-SY5Y cells at EC10 by qPCR method relative to beta-actin; assay type: functional
[19] = system: SH-SY5Y; test: Effect on TNFRSF1A mRNA expression in human SH-SY5Y cells at EC10 by qPCR method relative to beta-actin; assay type: functional
[20] = system: U-118-MG; test: Effect on VCAM1 mRNA expression in human U118MG cells at EC10 by qPCR method relative to beta-actin; assay type: functional
[21] = system: SH-SY5Y; test: Effect on ADORA2A mRNA expression in human SH-SY5Y cells at EC10 by qPCR method relative to beta-actin; assay type: functional
[22] = system: U-118-MG; test: Effect on TNF mRNA expression in human U118MG cells at EC10 by qPCR method relative to beta-actin; assay type: functional
[23] = system: SH-SY5Y; test: Effect on ICAM1 mRNA expression in human SH-SY5Y cells at EC10 by qPCR method relative to beta-actin; assay type: functional
[24] = Cytotoxicity against human SH-SY5Y cells measured after 24 hrs by crystal-violet staining based assay; assay type: toxicity, cell-based
[25] = system: SH-SY5Y; test: Effect on ADCY5 mRNA expression in human SH-SY5Y cells at EC10 by qPCR method relative to beta-actin; assay type: functional
[26] = system: SK-N-SH; test: Effect on PMP22 mRNA expression in human SK-N-SH cells at EC10 by qPCR method relative to beta-actin; assay type: functional
[27] = system: U-118-MG; test: Effect on S1PR1 mRNA expression in human U118MG cells at EC10 by qPCR method relative to beta-actin; assay type: functional
[28] = Cytotoxicity against human SK-N-SH cells measured after 24 hrs by crystal-violet staining based assay; assay type: toxicity, cell-based
[29] = system: SK-N-SH; test: Effect on GNAS mRNA expression in human SK-N-SH cells at EC10 by qPCR method relative to beta-actin; assay type: functional
[30] = system: SH-SY5Y; test: Effect on NFKB1 mRNA expression in human SH-SY5Y cells at EC10 by qPCR method relative to beta-actin; assay type: functional
[31] = system: U-118-MG; test: Effect on IL6 mRNA expression in human U118MG cells at EC10 by qPCR method relative to beta-actin; assay type: functional
[32] = system: SK-N-SH; test: Effect on TNFRSF1A mRNA expression in human SK-N-SH cells at EC10 by qPCR method relative to beta-actin; assay type: functional
[33] = system: SH-SY5Y; test: Effect on CXCL10 mRNA expression in human SH-SY5Y cells at EC10 by qPCR method relative to beta-actin; assay type: functional
[34] = target: Sphingosine 1-phosphate receptor 1 (Homo sapiens) (UniProt P21453); test: Agonist activity at sphingosine-1-phosphate receptor in human U118MG cells assessed as increase in cAMP level at EC10 by direct immunoassay; assay type: functional, cell-based; details: U-118-MG
[35] = system: U-118-MG; test: Effect on NFKB1 mRNA expression in human U118MG cells at EC10 by qPCR method relative to beta-actin; assay type: functional
[36] = system: SK-N-SH; test: Effect on IL10 mRNA expression in human SK-N-SH cells at EC10 by qPCR method relative to beta-actin; assay type: functional
[37] = system: SK-N-SH; test: Effect on ADCY5 mRNA expression in human SK-N-SH cells at EC10 by qPCR method relative to beta-actin; assay type: functional
[38] = system: SK-N-SH; test: Effect on S1PR1 mRNA expression in human SK-N-SH cells at EC10 by qPCR method relative to beta-actin; assay type: functional
[39] = system: SH-SY5Y; test: Effect on S1PR1 mRNA expression in human SH-SY5Y cells at EC10 by qPCR method relative to beta-actin; assay type: functional
[40] = system: U-118-MG; test: Effect on GNAS mRNA expression in human U118MG cells at EC10 by qPCR method relative to beta-actin; assay type: functional
[41] = system: SH-SY5Y; test: Effect on CCL2 mRNA expression in human SH-SY5Y cells at EC10 by qPCR method relative to beta-actin; assay type: functional
[42] = system: SH-SY5Y; test: Effect on DRD2 mRNA expression in human SH-SY5Y cells at EC10 by qPCR method relative to beta-actin; assay type: functional
[43] = system: U-118-MG; test: Effect on ADCY5 mRNA expression in human U118MG cells at EC10 by qPCR method relative to beta-actin; assay type: functional
[44] = system: U-118-MG; test: Effect on IL10 mRNA expression in human U118MG cells at EC10 by qPCR method relative to beta-actin; assay type: functional

Sphingosine 1-phosphate receptor 1 (Homo sapiens), sequence (P21453 whole entry): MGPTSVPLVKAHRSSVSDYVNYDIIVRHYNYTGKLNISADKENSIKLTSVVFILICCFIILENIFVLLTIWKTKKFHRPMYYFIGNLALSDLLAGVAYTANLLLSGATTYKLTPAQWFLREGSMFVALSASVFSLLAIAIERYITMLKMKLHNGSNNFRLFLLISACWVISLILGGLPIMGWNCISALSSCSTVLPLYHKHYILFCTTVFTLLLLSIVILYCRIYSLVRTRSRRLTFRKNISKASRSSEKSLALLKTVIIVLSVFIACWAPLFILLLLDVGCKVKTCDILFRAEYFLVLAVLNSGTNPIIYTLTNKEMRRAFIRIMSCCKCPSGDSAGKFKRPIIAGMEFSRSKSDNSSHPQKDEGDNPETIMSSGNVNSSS

Activity [13]: Active
Activity [16]: Active
Activity [34]: Active
SMILES: CCCCCCCCc1ccc(CCC(N)(CO)CO)cc1 [FINGOLIMOD]
fold change (FC) [1]: -6.498
fold change (FC) [2]: -6.6923
fold change (FC) [3]: -3.6601
fold change (FC) [4]: -4.5217
fold change (FC) [5]: -6.8152
fold change (FC) [6]: -3.6983
fold change (FC) [7]: -15.2356
fold change (FC) [8]: -4.9966
fold change (FC) [9]: -5.8716
EC10 [10]: 610 nM
fold change (FC) [11]: -5.2302
fold change (FC) [12]: -4.2501
fold change (FC) [14]: -4.9933
fold change (FC) [15]: -8.1222
fold change (FC) [17]: -15.9446
fold change (FC) [18]: -5.1694
fold change (FC) [19]: -10.091
fold change (FC) [20]: -4.7445
fold change (FC) [21]: -4.4924
fold change (FC) [22]: -5.8716
fold change (FC) [23]: -6.0839
EC10 [24]: 540 nM
fold change (FC) [25]: -5.5117
fold change (FC) [26]: -3.3914
fold change (FC) [27]: -4.1044
EC10 [28]: 550 nM
fold change (FC) [29]: -6.1024
fold change (FC) [30]: -3.9931
fold change (FC) [31]: -4.4847
fold change (FC) [32]: -3.8155
fold change (FC) [33]: -3.1821
fold change (FC) [35]: -3.1465
fold change (FC) [36]: -4.2704
fold change (FC) [37]: -5.1851
fold change (FC) [38]: -5.8741
fold change (FC) [39]: -8.6788
fold change (FC) [40]: -2.939
fold change (FC) [41]: -7.8218
fold change (FC) [42]: -9.8151
fold change (FC) [43]: -5.5057
fold change (FC) [44]: -2.5151

Activity [13]: Active
Activity [16]: Active
Activity [34]: Active
SMILES: CCCCCCCCn1nnnc1CCC(N)(CO)CO.Cl
fold change (FC) [1]: -4.4551
fold change (FC) [2]: -5.7901
fold change (FC) [3]: -6.9253
fold change (FC) [4]: -3.8822
fold change (FC) [5]: -5.127
fold change (FC) [6]: -7.9001
fold change (FC) [7]: -7.8456
fold change (FC) [8]: -5.0641
fold change (FC) [9]: -5.1248
EC10 [10]: 540 nM
fold change (FC) [11]: -4.7219
fold change (FC) [12]: -7.3448
fold change (FC) [14]: -5.2706
fold change (FC) [15]: -5.915
fold change (FC) [17]: -3.2642
fold change (FC) [18]: -3.5921
fold change (FC) [19]: -6.2787
fold change (FC) [20]: -3.8654
fold change (FC) [21]: -6.5966
fold change (FC) [22]: -5.8487
fold change (FC) [23]: -7.3035
EC10 [24]: 450 nM
fold change (FC) [25]: -5.9067
fold change (FC) [26]: -4.1464
fold change (FC) [27]: -4.1312
EC10 [28]: 370 nM
fold change (FC) [29]: -7.631
fold change (FC) [30]: -3.8433
fold change (FC) [31]: -4.7651
fold change (FC) [32]: -3.6537
fold change (FC) [33]: -3.4279
fold change (FC) [35]: -2.6004
fold change (FC) [36]: -7.7375
fold change (FC) [37]: -4.4983
fold change (FC) [38]: -4.3001
fold change (FC) [39]: -4.2848
fold change (FC) [40]: -2.9212
fold change (FC) [41]: -3.0787
fold change (FC) [42]: -3.3881
fold change (FC) [43]: -5.787
fold change (FC) [44]: -2.5669

Activity [13]: Active
Activity [16]: Active
Activity [34]: Active
SMILES: CCCCCCCCn1nnnc1-c1ccc(C(O)CC(N)(CO)CO)cc1.Cl (configuration not stated)
fold change (FC) [1]: -3.0565
fold change (FC) [2]: -3.9092
fold change (FC) [3]: -3.6999
fold change (FC) [4]: -4.2208
fold change (FC) [5]: -5.4736
fold change (FC) [6]: -3.7516
fold change (FC) [7]: -4.9674
fold change (FC) [8]: -4.4431
fold change (FC) [9]: -5.4523
EC10 [10]: 360 nM
fold change (FC) [11]: -6.1156
fold change (FC) [12]: -3.3797
fold change (FC) [14]: -4.0191
fold change (FC) [15]: -4.3394
fold change (FC) [17]: -3.511
fold change (FC) [18]: -3.0092
fold change (FC) [19]: -3.2986
fold change (FC) [20]: -5.7757
fold change (FC) [21]: -4.6048
fold change (FC) [22]: -6.5178
fold change (FC) [23]: -3.763
EC10 [24]: 300 nM
fold change (FC) [25]: -4.3188
fold change (FC) [26]: -5.2416
fold change (FC) [27]: -3.8312
EC10 [28]: 270 nM
fold change (FC) [29]: -4.4537
fold change (FC) [30]: -3.5415
fold change (FC) [31]: -4.3829
fold change (FC) [32]: -4.1053
fold change (FC) [33]: -3.1588
fold change (FC) [35]: -4.6974
fold change (FC) [36]: -4.6028
fold change (FC) [37]: -4.6187
fold change (FC) [38]: -4.2281
fold change (FC) [39]: -5.0215
fold change (FC) [40]: -3.2119
fold change (FC) [41]: -4.1393
fold change (FC) [42]: -3.4837
fold change (FC) [43]: -6.08
fold change (FC) [44]: -2.6793
